The source made the active and inactive calls. No cut-off for these calls is given here.
Legend:
[1] = biological target: T1, WD repeat-containing protein 5 (Homo sapiens, UniProt P61964); assay: (§1) Displacement of N-(4'-((17-(5,5-difluoro-7-(1H-pyrrol-2-yl)-5H-5l4,6l4-dipyrrolo[1,2-c:2',1'-f][1,3,2]diazaborinin-3-yl)-15-oxo-4,7,10-trioxa-14-azaheptadecyl)carbamoyl)-4-(4-methylpiperazin-1-yl)-[1,1'-biphenyl]-3-yl)-6-hydroxy-4-(trifluoromethyl)nicotinamide tracer from N-/C-terminal NanoLuc-fused full-length WDR5 (unknown origin) transfected in HEK293T cell lysate incubated for 2 hrs by NanoBRET assay; format: subcellular
[2] = biological target: T1, WD repeat-containing protein 5
Description: Binding affinity to recombinant WDR5 (unknown origin) expressed in Escherichia coli BL21 assessed as shift in melting temperature by DSF assay

[3] = biological target: T1, WD repeat-containing protein 5; assay: as §1, with “cells” for “cell lysate”; format: cell-based
MV4-11 [4] = assay: Cytotoxicity against human MV4-11 cells expressing VHL assessed as defect in cell proliferation at 5 to 10 uM incubated for 15 days with replacement of fresh medium containing compound on every third day; format: functional, cell-based; settings: dose 5-10 µM, time 15.0 day
MV4-11 [5] = assay: Cytotoxicity against human MV4-11 cells assessed as defect in cell proliferation at 10 uM incubated for 15 days with replacement of fresh medium containing compound on every third day; format: functional, cell-based; settings: time 15.0 day
[6] = biological target: T1, WD repeat-containing protein 5; remark: listed apart in the source
Description: Binding affinity to recombinant WDR5 (unknown origin) expressed in Escherichia coli BL21 assessed as change in entropy by isothermal titration calorimetry

[7] = biological target: T1, WD repeat-containing protein 5; assay: Binding affinity to recombinant WDR5 (unknown origin) expressed in Escherichia coli BL21 assessed as dissociation constant by isothermal titration calorimetry
[8] = biological target: T1, WD repeat-containing protein 5; remark: listed apart in the source
Description: Binding affinity to recombinant WDR5 (unknown origin) expressed in Escherichia coli BL21 assessed as change in enthalpy by isothermal titration calorimetry

| SMILES | IC50 [1] [µM] | deltaTm [2] [K] | IC50 [3] [µM] | Activity (MV4-11 [4]) | Activity (MV4-11 [5]) | TdeltaS [6] [kcal/mol] | deltaTm ([2]; filed as modulator) [K] | Kd [7] [µM] | deltaH [8] [kcal/mol] |
| --- | --- | --- | --- | --- | --- | --- | --- | --- | --- |
| COc1cc(C(=O)NCCOCCOCCOCCOCCOCCOCCOCCNC(=O)c2ccc(-c3ccc(N4CCN(C)CC4)c(NC(=O)c4c[nH]c(=O)cc4C(F)(F)F)c3)cc2)ccc1NC(=O)[C@@H]1N[C@@H](CC(C)(C)C)[C@](C#N)(c2ccc(Cl)cc2F)[C@H]1c1cccc(Cl)c1F | ≥ 50 | 0.3 | ≥ 50 | – | – | – | – | – | – |
| COc1cc(C(=O)NCCOCCNC(=O)c2ccc(-c3ccc(N4CCN(C)CC4)c(NC(=O)c4c[nH]c(=O)cc4C(F)(F)F)c3)cc2)ccc1NC(=O)[C@@H]1N[C@@H](CC(C)(C)C)[C@](C#N)(c2ccc(Cl)cc2F)[C@H]1c1cccc(Cl)c1F | ≥ 50 | 0.9 | ≥ 50 | – | – | – | – | – | – |
| Cc1ncsc1-c1ccc(CNC(=O)[C@@H]2C[C@@H](O)CN2C(=O)[C@@H](NC(=O)CCOCCOCCOc2ccc(-c3cn4c(n3)CCC4)cc2CNC(=O)Cc2ccc(Cl)c(Cl)c2)C(C)(C)C)cc1 | – | – | – | Active | Active | – | – | – | – |
| Cc1ncsc1-c1ccc(CNC(=O)[C@@H]2C[C@@H](O)CN2C(=O)[C@@H](NC(=O)CCOCCOCCOCCOCCOCCOCCOc2ccc(-c3cn4c(n3)CCC4)cc2CNC(=O)Cc2ccc(Cl)c(Cl)c2)C(C)(C)C)cc1 | ≥ 50 | 4.5 | ≥ 50 | – | – | – | – | – | – |
| Cc1ncsc1-c1ccc(CNC(=O)[C@@H]2C[C@@H](O)CN2C(=O)[C@@H](NC(=O)CCOCCOc2ccc(-c3cn4c(n3)CCC4)cc2CNC(=O)Cc2ccc(Cl)c(Cl)c2)C(C)(C)C)cc1 | ≥ 50 | 7 | ≥ 50 | – | – | – | – | – | – |
| Cc1ncsc1-c1ccc(CNC(=O)[C@@H]2C[C@@H](O)CN2C(=O)[C@@H](NC(=O)CCOCCOCCOCCOCCOc2cc(-c3cn4c(n3)CCC4)ccc2CNC(=O)Cc2ccc(Cl)c(Cl)c2)C(C)(C)C)cc1 | ≥ 50 | 3.4 | ≥ 50 | – | – | – | – | – | – |
| Cc1ncsc1-c1ccc(CNC(=O)[C@@H]2C[C@@H](O)CN2C(=O)[C@@H](NC(=O)CCOCCOCCOCCOCCOCCOc2ccc(-c3cn4c(n3)CCC4)cc2CNC(=O)Cc2ccc(Cl)c(Cl)c2)C(C)(C)C)cc1 | ≥ 50 | 4.3 | ≥ 50 | – | – | – | – | – | – |
| Cc1ncsc1-c1ccc(CNC(=O)[C@@H]2C[C@@H](O)CN2C(=O)[C@@H](NC(=O)CCOCCOCCOCCOc2ccc(-c3cn4c(n3)CCC4)cc2CNC(=O)Cc2ccc(Cl)c(Cl)c2)C(C)(C)C)cc1 | ≥ 50 | 3.6 | ≥ 50 | – | – | – | – | – | – |
| Cc1ncsc1-c1ccc(CNC(=O)[C@@H]2C[C@@H](O)CN2C(=O)[C@@H](NC(=O)CCOCCOCCOCCOCCOCCOCCOCCOc2ccc(-c3cn4c(n3)CCC4)cc2CNC(=O)Cc2ccc(Cl)c(Cl)c2)C(C)(C)C)cc1 | ≥ 50 | 4.6 | ≥ 50 | – | – | – | – | – | – |
| COc1ccc(-c2cn3c(n2)CCC3)cc1CNC(=O)Cc1ccc(Cl)c(Cl)c1 | ≥ 50 | – | ≥ 50 | – | – | 0.7 | 4.2 | 125 | -10 |
| COc1cc(C(=O)NCc2ccc(CNC(=O)c3ccc(-c4ccc(N5CCN(C)CC5)c(NC(=O)c5c[nH]c(=O)cc5C(F)(F)F)c4)cc3)cc2)ccc1NC(=O)[C@@H]1N[C@@H](CC(C)(C)C)[C@](C#N)(c2ccc(Cl)cc2F)[C@H]1c1cccc(Cl)c1F | ≥ 50 | 0.7 | ≥ 50 | – | – | – | – | – | – |
